This is an account of results in publication PMC8593015 (Scientific Reports, 2021).

For one experiment, the target named is T1, M. tb EgtD (Mycobacterium tuberculosis, UniProt P9WN47).
T1 construct: thioredoxin (N, cleaved yes); polyhistidine (N, cleaved yes); made in house; host or cells: E. coli (T7 cells), pET32-derived vector
T1 sequence (P9WN47 1-321): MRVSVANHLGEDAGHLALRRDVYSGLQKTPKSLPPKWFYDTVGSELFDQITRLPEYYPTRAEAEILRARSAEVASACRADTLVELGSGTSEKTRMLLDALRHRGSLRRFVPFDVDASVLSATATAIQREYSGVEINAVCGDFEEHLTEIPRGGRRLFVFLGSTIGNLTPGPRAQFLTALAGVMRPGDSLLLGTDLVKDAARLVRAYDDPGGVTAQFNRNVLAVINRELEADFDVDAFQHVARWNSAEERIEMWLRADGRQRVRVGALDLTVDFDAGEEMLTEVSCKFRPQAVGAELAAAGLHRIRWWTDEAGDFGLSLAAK
Nature of the experiment: biochemical.

For a further experiment, the system named is M. tb. Further details: method as in PMID 22100163, PMID 24586159, PMID 22988030. The settings on record: macrophage cells and infected mice; cited from earlier work.
In experiment [1] the test system is Mycobacterium marinum (M. marinum). The settings on record: cited from earlier work.

“And” between values parts separate entries of the source, which are not always exact repeats. Equal entries are not always repeated. Bounds are passed on as bounds.

Take `CS(=O)(=O)c1ccc(-c2nc(-c3ccc(F)cc3)c(-c3ccncc3)[nH]2)cc1` [Cay-10571, reference compound]: the concentration for a half-maximal effect (EC50) at M. tb EgtD is < 20 µM and 7 µM. `O=C(O)CNc1cccc(C(=O)NCCc2c[nH]cn2)c1` [HD1] had a concentration for a half-maximal effect (EC50) on M. tb EgtD of 89 ± 19 µM. Molecule `O=C(O)C(Cc1cnc[nH]1)n1cccc1` (centres unmarked) [HD2] gave an EC50 on M. tb EgtD of 33 ± 3 µM. For `O=C(O)C(Cc1cnc[nH]1)NC(=S)NCc1ccccc1` (centres unmarked) [HD3], a half-maximal effect at M. tb EgtD (EC50) was put at 47 ± 5 µM. Same read-out and setting: the result for `CCOc1ccccc1CN(CC)C(=O)[C@H](N)Cc1c[nH]cn1` [HD4] reads 25 ± 4 µM; that for `CN(Cc1ccc(Oc2ccccc2)cc1)C(=O)[C@H](N)Cc1c[nH]cn1` [HD5], 30 ± 3 µM. For `O=C(N[C@@H](Cc1c[nH]cn1)C(=O)O)C1CC=CC1` [HD6], the response at M. tb EgtD was half-maximal at 85 ± 19 µM (EC50). Moreover, the “fold decrease in inhibitory activity versus HD2 and HD3” value at M. tb EgtD (ratio of EC50 values) is listed as 1.5–2.5 fold. `CN(C)CCN(Cc1cnc[nH]1)C(=O)CN(C)Cc1ccccc1` [HD7] had an EC50 at M. tb EgtD of 85 ± 12 µM. Same read-out and setting: the result for `Cc1ccc(C(C)C(=O)N(CCN(C)C)Cc2cnc[nH]2)cc1` (centres unmarked) [HD8] reads 160 ± 60 µM. On M. tb EgtD, `CCOc1ccccc1OCCN(C)Cc1cnc[nH]1` [HD9] displayed an EC50 of 36 ± 4 µM. Against the preceding molecule, the EC50 is about 4.4-fold lower.

For the molecule `Cc1cccc(C(C(=O)NCCc2c[nH]cn2)N(C)C)c1` (centres unmarked) [HD10], on M. tb EgtD, the EC50 was determined as 32 ± 4 µM. Consider `Cc1ccc(NC(=O)c2ccc(CN3CCN(C)CC3)cc2)cc1Nc1nccc(-c2cccnc2)n1` [Imatinib], for which the “intracellular replication of M. tb” value in the experiment with M. tb is reported as “decrease in the intracellular replication”. Further, the “effect of combination with Rifampicin” value in experiment [1] (M. marinum-infected macrophage cells, Imatinib and Rifampicin) is recorded as “synergistic effect”. Besides, the “intracellular replication of M. marinum” value in experiment [1] (macrophage cells and infected mice) was “decrease in the intracellular replication”.

In the case of `O=c1cc(N2CCOCC2)oc2c1ccc1ccccc12` [NU-7026, reference compound], the EC50 on M. tb EgtD was < 20 µM and 5.4 µM. As to `Cc1cc(C(C)Nc2ccccc2)c2nc(N3CCOCC3)cc(=O)n2c1` (centres unmarked) [TGX-221, reference compound], the half-maximal effective concentration (EC50) at M. tb EgtD was < 20 µM and 15.2 µM.

What is called EC50 is the concentration that produces a half-maximal response. A higher EC50 goes with a less potent agent.
